According to ChEMBL document CHEMBL4196001, “Design, semisynthesis, α-glucosidase inhibitory, cytotoxic, and antibacterial activities of p-terphenyl derivatives” (Eur J Med Chem, 2018):
In brackets after ≈: the same amount, converted by molar mass. Counter-ions that a name gives are not always drawn. Activity calls are given as the source filed them. No cut-off for these calls is given here.

Columns and labels:
HeLa [1] = experiment: Cytotoxicity against human HeLa cells at 10 uM by SRB assay; type: functional, cell-based
A549 [2] = experiment: Cytotoxicity against human A549 cells by SRB assay; type: functional, cell-based
Alpha glucosidase [3] = target: T1, Alpha glucosidase (Homo sapiens, UniProt O43451+P10253+P14410+Q2M2H8); experiment: Inhibition of human alpha-glucosidase expressed in Saccharomyces cerevisiae using p-nitrophenyl-alpha-D-glucopyranoside as substrate after 15 mins
[4] = Cytotoxicity against human Chang cells at 10 uM by SRB assay; type: cell-based
HepG2 [5] = experiment: Cytotoxicity against human HepG2 cells at 10 uM by SRB assay; type: functional, cell-based
HepG2 [6] = experiment: Cytotoxicity against human HepG2 cells by SRB assay; type: functional, cell-based
A549 [7] = experiment: Cytotoxicity against human A549 cells at 10 uM by SRB assay; type: functional, cell-based
[8] = Cytotoxicity against human Chang cells by SRB assay; type: cell-based
Staphylococcus aureus = experiment: Antibacterial activity against Staphylococcus aureus after 24 hrs by broth macrodilution method; type: functional
Alpha glucosidase [9] = target: T1, Alpha glucosidase; experiment: Inhibition of human alpha-glucosidase expressed in Saccharomyces cerevisiae at 10 uM using p-nitrophenyl-alpha-D-glucopyranoside as substrate after 15 mins by two-fold serial dilution method
HeLa [10] = experiment: Cytotoxicity against human HeLa cells by SRB assay; type: functional, cell-based

SMILES | IC50 (Alpha glucosidase [3]) [µM] | MIC (Staphylococcus aureus) [µM] | inhibition (Alpha glucosidase [9]) | Activity (HeLa [1]) | IC50 (A549 [2]) [µM] | Activity [4] | Activity (HepG2 [5]) | IC50 (HepG2 [6]) [µM] | Activity (A549 [7]) | CC50 [8] [µM] | IC50 (HeLa [10]) [µM]
CCCOc1ccc(-c2c(OC)cc(-c3ccc(O)cc3)c(OC)c2O)cc1 | 12.3 | – | – | inactive | 10.3 | Non-Toxic | inactive | – | – | – | –
COc1cc(-c2ccc(O)cc2)c(OC)c(O)c1-c1ccc(O)c(CC=C(C)C)c1 | 25.7 | – | – | inactive | – | – | – | 2.74 | inactive | 0.91 | –
COc1cccc2c1C(=O)c1c(O)c3c(c(O)c1C2=O)C[C@@](O)(C(=O)CO)C[C@@H]3O[C@H]1C[C@H](N)[C@H](O)[C@H](C)O1 [DOXORUBICIN HYDROCHLORIDE] | – | – | – | – | 0.16 | – | – | – | – | – | –
COc1cc(-c2ccc(O)cc2)c(OC)c(OCCBr)c1-c1ccc(O)cc1 | 18.8 | 6.25 (≈ 2.78 µg/mL) | – | inactive | – | – | inactive | – | inactive | 39.1 | –
COc1cc(-c2ccc(OCc3ccc(-c4ccccc4)cc3)cc2)c(OC)c(O)c1-c1ccc(O)cc1 | 12.2 | – | – | inactive | – | – | inactive | – | inactive | 12.7 | –
CCCOc1ccc(-c2cc(OC)c(-c3ccc(O)cc3)c(OCCC)c2OC)cc1 | 8.69 | – | – | – | 0.26 | – | – | 0.49 | – | 0.87 | 0.18
COc1cc(-c2ccc(OCC=C(C)C)cc2)c(OC)c(OCC=C(C)C)c1-c1ccc(OCC=C(C)C)cc1 | – | – | inactive | inactive | – | Non-Toxic | inactive | – | inactive | – | –
C=CCOc1ccc(-c2cc(OC)c(-c3ccc(O)cc3)c(OCC=C)c2OC)cc1 | 8.77 | – | – | – | 0.25 | – | – | 0.43 | – | < 0.62 | 0.15
CCCOc1ccc(-c2cc(OC)c(-c3ccc(OCCC)cc3)c(OCCC)c2OC)cc1 | – | – | inactive | inactive | – | Non-Toxic | inactive | – | inactive | – | –
COc1cc(-c2ccc(O)cc2)c(OC)c(OCCN2CCCC2)c1-c1ccc(O)cc1 | – | – | – | inactive | – | – | inactive | – | inactive | – | –
COc1cc(-c2ccc(OCC=C(C)C)cc2)c(OC)c(OCC=C(C)C)c1-c1ccc(O)cc1 | 53.1 | – | – | – | 3.36 | – | – | 5.26 | – | 7.34 | 3.37
C=CCOc1c(OC)c(-c2ccc(O)cc2)cc(OC)c1-c1ccc(O)cc1 | 83.8 | – | – | inactive | – | Non-Toxic | inactive | – | inactive | – | –
COc1cc(-c2ccc(O)cc2)c(OC)c(OC(C)=O)c1-c1ccc(O)cc1 | – | – | – | inactive | – | Non-Toxic | inactive | – | inactive | – | –
COc1cc(-c2ccc(O)cc2)c(OC)c(OC(=O)c2ccc(F)cc2)c1-c1ccc(O)cc1 | – | – | – | inactive | – | Non-Toxic | inactive | – | inactive | – | –
COc1cc(-c2ccc(OCCC(C)C)cc2)c(OC)c(O)c1-c1ccc(O)cc1 | 14.3 | – | – | inactive | – | Non-Toxic | inactive | – | inactive | – | –
CCCOc1ccc(-c2c(OC)cc(-c3ccc(O)cc3)c(OC)c2OCCC)cc1 | 10.7 | – | – | inactive | – | – | inactive | – | inactive | 13.1 | –
COc1cc(-c2ccc(O)cc2)c(OC)c(OC(=O)c2ccco2)c1-c1ccc(O)cc1 | 35.4 | – | – | inactive | – | Non-Toxic | inactive | – | inactive | – | –
COc1cc(-c2ccc(OCCN3CCCC3)cc2)c(OC)c(O)c1-c1ccc(O)cc1 | – | – | – | inactive | – | – | inactive | – | inactive | – | –
COc1cc(-c2ccc(OCc3ccccc3)cc2)c(OC)c(O)c1-c1ccc(O)cc1 | 12.5 | 6.25 (≈ 2.68 µg/mL) | – | inactive | – | – | inactive | – | inactive | 39.1 | –
COc1c(Cl)c(-c2ccc(O)cc2)c(OC)c(O)c1-c1ccc(O)cc1 | 31.3 | – | – | inactive | – | Non-Toxic | inactive | – | inactive | – | –
COc1cc(-c2ccc(O)cc2)c(OC)c(OCC=C(C)C)c1-c1ccc(O)cc1 | 23.4 | 6.25 (≈ 2.54 µg/mL) | – | inactive | – | – | inactive | – | inactive | 15.9 | –
CCCOc1ccc(-c2cc(OC)c(-c3ccc(OCCC)cc3)c(O)c2OC)cc1 | – | – | inactive | inactive | – | Non-Toxic | inactive | – | inactive | – | –
COc1cc(-c2ccc(O)cc2)c(OC)c(O)c1-c1ccc(OCc2ccccc2)cc1 | 12.5 | 6.25 (≈ 2.68 µg/mL) | – | inactive | – | – | inactive | – | inactive | 23.1 | –
C#CCOc1ccc(-c2cc(OC)c(-c3ccc(O)cc3)c(OCC#C)c2OC)cc1 | 20.1 | – | – | – | 0.79 | – | – | 1.23 | – | 2.31 | 0.68
COc1cc(-c2ccc(OCC(=O)O)cc2)c(OC)c(O)c1-c1ccc(O)cc1 | – | – | – | inactive | – | – | inactive | – | inactive | – | –
COc1cc(-c2ccc(OC(c3ccccc3)c3ccccc3)cc2)c(OC)c(O)c1-c1ccc(O)cc1 | – | – | – | inactive | – | – | inactive | – | inactive | 22.3 | –
COc1cc(-c2ccc(O)cc2)c(OC)c(O)c1-c1ccc(OC(c2ccccc2)c2ccccc2)cc1 | – | – | – | inactive | – | – | inactive | – | inactive | 48.3 | –

Further lines, with some results ahead:

IC50 (Alpha glucosidase [3]) [µM] | MIC (Staphylococcus aureus) [µM] | inhibition (Alpha glucosidase [9]) | SMILES | Activity (HeLa [1]) | IC50 (A549 [2]) [µM] | Activity [4] | Activity (HepG2 [5]) | IC50 (HepG2 [6]) [µM] | Activity (A549 [7]) | CC50 [8] [µM] | IC50 (HeLa [10]) [µM]
– | – | inactive | COc1cc(-c2ccc(OCC=C(C)C)cc2)c(OC)c(O)c1-c1ccc(OCC=C(C)C)cc1 | – | – | – | – | 4.1 | inactive | 31.1 | 2.76
7.14 | 1.56 (≈ 0.651 µg/mL) | – | COc1c(Br)c(-c2ccc(O)cc2)c(OC)c(O)c1-c1ccc(O)cc1 | inactive | – | Non-Toxic | inactive | – | inactive | – | –
6.67 | – | – | COc1cc(-c2ccc(OCCBr)cc2)c(OC)c(OCCBr)c1-c1ccc(O)cc1 | – | 3.06 | – | – | 3.85 | – | 5.05 | 1.58
16.1 | – | – | COc1cc(-c2ccc(OCCBr)cc2)c(OC)c(O)c1-c1ccc(O)cc1 | inactive | – | – | inactive | – | inactive | 95.4 | –
– | – | inactive | C=CCOc1ccc(-c2cc(OC)c(-c3ccc(OCC=C)cc3)c(OCC=C)c2OC)cc1 | – | – | Non-Toxic | inactive | – | inactive | – | 10.1
– | – | inactive | C#CCOc1ccc(-c2cc(OC)c(-c3ccc(OCC#C)cc3)c(OCC#C)c2OC)cc1 | inactive | – | Non-Toxic | inactive | – | inactive | – | –
– | – | inactive | C=CCOc1ccc(-c2cc(OC)c(-c3ccc(OCC=C)cc3)c(O)c2OC)cc1 | inactive | – | Non-Toxic | inactive | – | inactive | – | –
19.1 | 6.25 (≈ 2.68 µg/mL) | – | COc1cc(-c2ccc(O)cc2)c(OC)c(OCc2ccccc2)c1-c1ccc(O)cc1 | inactive | – | – | inactive | – | inactive | 17.1 | –
26.5 | – | – | C=CCOc1ccc(-c2cc(OC)c(-c3ccc(O)cc3)c(O)c2OC)cc1 | inactive | – | Non-Toxic | inactive | – | inactive | – | –
18 | – | – | COc1cc(-c2ccc(O)cc2)c(OC)c(O)c1-c1ccc(OCCBr)cc1 | inactive | – | – | inactive | – | inactive | 54.4 | –
– | – | inactive | COc1cc(-c2ccc(OCCBr)cc2)c(OC)c(OCCBr)c1-c1ccc(OCCBr)cc1 | inactive | – | Non-Toxic | inactive | – | inactive | – | –
20.1 | 6.25 (≈ 2.54 µg/mL) | – | COc1cc(-c2ccc(OCC=C(C)C)cc2)c(OC)c(O)c1-c1ccc(O)cc1 | inactive | – | – | inactive | – | inactive | 26.2 | –
22.7 | – | – | O=C1C=C(c2ccc(O)cc2)C(=O)C(O)=C1c1ccc(O)cc1 | inactive | – | – | inactive | – | inactive | > 100 | –
– | – | inactive | COc1cc(-c2ccc(OCCBr)cc2)c(OC)c(O)c1-c1ccc(OCCBr)cc1 | inactive | – | Non-Toxic | inactive | – | inactive | – | –
19.3 | 6.25 (≈ 2.38 µg/mL) | – | CCCOc1c(OC)c(-c2ccc(O)cc2)cc(OC)c1-c1ccc(O)cc1 | inactive | – | – | inactive | – | inactive | 14.5 | –
